Reference: ChEMBL document CHEMBL4052668, “Synthesis and evaluation of symmetric acyclic nucleoside bisphosphonates as inhibitors of the Plasmodium falciparum, Plasmodium vivax and human 6-oxopurine phosphoribosyltransferases and the antimalarial activity of their prodrugs” (Bioorg Med Chem, 2017)
Active and inactive are the calls of the source. The calls are words filed in the database; no cut-off is given here.

How the values were obtained:
Plasmodium falciparum [1] = experiment: Inhibition of Plasmodium falciparum HGXPRT at 42 uM using PRib-PP as substrate in presence of guanine by spectrophotometric method
[2] = target: T1, Hypoxanthine-guanine phosphoribosyltransferase (Homo sapiens) (UniProt P00492); experiment: Inhibition of N-terminal hexa-histidine-tagged human HGPRT at 42 uM using PRib-PP as substrate in presence of guanine by spectrophotometric analysis
T1 sequence (whole entry): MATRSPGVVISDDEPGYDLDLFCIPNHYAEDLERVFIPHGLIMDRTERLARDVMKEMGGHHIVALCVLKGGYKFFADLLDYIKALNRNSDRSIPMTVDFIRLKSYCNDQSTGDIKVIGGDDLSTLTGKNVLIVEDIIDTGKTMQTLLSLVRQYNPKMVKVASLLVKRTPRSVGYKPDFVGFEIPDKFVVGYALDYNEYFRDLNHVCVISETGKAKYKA

Plasmodium vivax [3] = experiment: Inhibition of N-terminal hexa-histidine-tagged Plasmodium vivax HGPRT at 42 uM using PRib-PP as substrate in presence of guanine by spectrophotometric method
[4] = target: T2, Hypoxanthine-guanine phosphoribosyltransferase (Homo sapiens, UniProt P00492); experiment: Inhibition of N-terminal hexa-histidine-tagged human HGPRT using PRib-PP as substrate in presence of guanine by Hanes plot analysis
T2 sequence (P00492 whole entry): T1 sequence (whole entry)

[5] = Inhibition of N-terminal hexa-histidine-tagged Plasmodium vivax HGPRT using PRib-PP as substrate in presence of guanine by Hanes plot analysis
[6] = Stability of the compound in pH 7 solution; type: physicochemical; conditions: buffer
Plasmodium falciparum [7] = experiment: Antimalarial activity against Plasmodium falciparum D6 trophozoites assessed as reduction in [3H]-hypoxanthine incorporation preincubated for 96 hrs followed by [3H]-hypoxanthine addition at 48 hrs post start of experiment; type: functional
[8] = Cytotoxicity against human A549 cells after 4 days by coulter counting method; type: cell-based
Plasmodium falciparum [9] = experiment: Antimalarial activity against chloroquine/pyrimethamine-resistant Plasmodium falciparum W2 trophozoites assessed as reduction in [3H]-hypoxanthine incorporation preincubated for 96 hrs followed by [3H]-hypoxanthine addition at 48 hrs post start of experiment; type: functional
[10] = Inhibition of Plasmodium falciparum HGXPRT using PRib-PP as substrate in presence of guanine by Hanes plot analysis
Plasmodium falciparum [11] = experiment: Inhibition of Plasmodium falciparum HGXPRT at 29 uM using PRib-PP as substrate in presence of guanine by spectrophotometric method
Plasmodium vivax [12] = experiment: Inhibition of N-terminal hexa-histidine-tagged Plasmodium vivax HGPRT at 29 uM using PRib-PP as substrate in presence of guanine by spectrophotometric method
Plasmodium vivax [13] = experiment: Inhibition of N-terminal hexa-histidine-tagged Plasmodium vivax HGPRT at 31 uM using PRib-PP as substrate in presence of guanine by spectrophotometric method
Plasmodium falciparum [14] = experiment: Inhibition of Plasmodium falciparum HGXPRT at 31 uM using PRib-PP as substrate in presence of guanine by spectrophotometric method
Plasmodium falciparum [15] = experiment: Inhibition of Plasmodium falciparum HGXPRT at 32 uM using PRib-PP as substrate in presence of guanine by spectrophotometric method
Plasmodium falciparum [16] = experiment: Inhibition of Plasmodium falciparum HGXPRT at 46 uM using PRib-PP as substrate in presence of guanine by spectrophotometric method
Plasmodium vivax [17] = experiment: Inhibition of N-terminal hexa-histidine-tagged Plasmodium vivax HGPRT at 35 uM using PRib-PP as substrate in presence of guanine by spectrophotometric method
Plasmodium falciparum [18] = experiment: Inhibition of Plasmodium falciparum HGXPRT at 35 uM using PRib-PP as substrate in presence of guanine by spectrophotometric method
[19] = target: T1, Hypoxanthine-guanine phosphoribosyltransferase (Homo sapiens); experiment: Inhibition of N-terminal hexa-histidine-tagged human HGPRT at 35 uM using PRib-PP as substrate in presence of guanine by spectrophotometric analysis

Row | Ki [4] [µM] | SMILES | Ki [5] [µM] | Stability [6] | IC50 (Plasmodium falciparum [7]) [µM] | CC50 at 96 h [8] [µM] | IC50 (Plasmodium falciparum [9]) [µM] | further results
1 |  | O=c1[nH]cnc2c1ccn2C(COCCP(=O)(O)O)COCCP(=O)(O)O |  |  |  |  |  | inhibition (Plasmodium falciparum [1]): inactive; inhibition [2]: inactive; inhibition (Plasmodium vivax [3]): inactive
2 | 1 | Nc1nc2c(ccn2CC(COCCP(=O)(O)O)COCCP(=O)(O)O)c(=O)[nH]1 | 1.5 |  |  |  |  | 
3 |  | CCOC(=O)[C@H](Cc1ccccc1)NP(=O)(CCOCC(COCCP(=O)(N[C@@H](Cc1ccccc1)C(=O)OCC)N[C@@H](Cc1ccccc1)C(=O)OCC)n1cnc2c(=O)[nH]c(N)nc21)N[C@@H](Cc1ccccc1)C(=O)OCC |  | Stable | 10 | > 300 | 9.4 | 
4 | 19 | Nc1nc2c(nc(Br)n2C(COCCP(=O)(O)O)COCCP(=O)(O)O)c(=O)[nH]1 | 153 |  |  |  |  | Ki [10]: 4 µM
5 | 9.7 | O=c1[nH]cnc2c1nc(Br)n2CC(COCCP(=O)(O)O)COCCP(=O)(O)O |  |  |  |  |  | inhibition (Plasmodium falciparum [11]): inactive; inhibition (Plasmodium vivax [12]): inactive
6 |  | CCOC(=O)[C@H](Cc1ccccc1)NP(=O)(CCOCC(COCCP(=O)(N[C@@H](Cc1ccccc1)C(=O)OCC)N[C@@H](Cc1ccccc1)C(=O)OCC)Cn1c(Br)nc2c(=O)[nH]c(N)nc21)N[C@@H](Cc1ccccc1)C(=O)OCC |  |  | 22.1 | 94 | 21.3 | 
7 |  | CCOC(=O)[C@H](Cc1ccccc1)NP(=O)(CCOCC(COCCP(=O)(N[C@@H](Cc1ccccc1)C(=O)OCC)N[C@@H](Cc1ccccc1)C(=O)OCC)n1c(Br)nc2c(=O)[nH]cnc21)N[C@@H](Cc1ccccc1)C(=O)OCC |  |  |  | 278 |  | 
8 |  | CCOC(=O)[C@H](Cc1ccccc1)NP(=O)(CCOCC(COCCP(=O)(N[C@@H](Cc1ccccc1)C(=O)OCC)N[C@@H](Cc1ccccc1)C(=O)OCC)Cn1cnc2c(=O)[nH]c(N)nc21)N[C@@H](Cc1ccccc1)C(=O)OCC |  | Stable | 5.1 | > 300 | 6.9 | 
9 |  | CCOC(=O)[C@H](Cc1ccccc1)NP(=O)(CCOCC(COCCP(=O)(N[C@@H](Cc1ccccc1)C(=O)OCC)N[C@@H](Cc1ccccc1)C(=O)OCC)n1c(Br)nc2c(=O)[nH]c(N)nc21)N[C@@H](Cc1ccccc1)C(=O)OCC |  |  | 4.4 |  | 7 | 
10 | 4 | Nc1nc2c(nc(Br)n2CC(COCP(=O)(O)O)COCP(=O)(O)O)c(=O)[nH]1 | 89 |  |  |  |  | Ki [10]: 1 µM
11 |  | CCOC(=O)[C@H](Cc1ccccc1)NP(=O)(CCOCC(COCCP(=O)(N[C@@H](Cc1ccccc1)C(=O)OCC)N[C@@H](Cc1ccccc1)C(=O)OCC)Cn1ccc2c(=O)[nH]c(N)nc21)N[C@@H](Cc1ccccc1)C(=O)OCC |  | Stable | 0.8 | 95 | 2.1 | 
12 | 0.1 | Nc1nc2c(ncn2CC(COCCP(=O)(O)O)COCCP(=O)(O)O)c(=O)[nH]1 | 0.16 |  |  |  |  | 
13 |  | CCOC(=O)[C@H](Cc1ccccc1)NP(=O)(CCOCC(COCCP(=O)(N[C@@H](Cc1ccccc1)C(=O)OCC)N[C@@H](Cc1ccccc1)C(=O)OCC)n1ccc2c(=O)[nH]c(N)nc21)N[C@@H](Cc1ccccc1)C(=O)OCC |  | Stable | 0.8 | > 300 | 1.1 | 
14 | 17 | O=c1[nH]cnc2c1ccn2CC(COCCP(=O)(O)O)COCCP(=O)(O)O |  |  |  |  |  | inhibition (Plasmodium vivax [13]): inactive; inhibition (Plasmodium falciparum [14]): inactive
15 | 0.25 | Nc1nc2c(nc(Br)n2CC(COCCP(=O)(O)O)COCCP(=O)(O)O)c(=O)[nH]1 | 1.6 |  |  |  |  | inhibition (Plasmodium falciparum [15]): inactive
16 |  | CCOC(=O)[C@H](Cc1ccccc1)NP(=O)(CCOCC(COCCP(=O)(N[C@@H](Cc1ccccc1)C(=O)OCC)N[C@@H](Cc1ccccc1)C(=O)OCC)Cn1ccc2c(=O)[nH]cnc21)N[C@@H](Cc1ccccc1)C(=O)OCC |  | Stable |  | 23 |  | 
17 |  | CCOC(=O)[C@H](Cc1ccccc1)NP(=O)(CCOCC(COCCP(=O)(N[C@@H](Cc1ccccc1)C(=O)OCC)N[C@@H](Cc1ccccc1)C(=O)OCC)Cn1c(Br)nc2c(=O)[nH]cnc21)N[C@@H](Cc1ccccc1)C(=O)OCC |  |  |  | 43 |  | 
18 | 3 | O=c1[nH]cnc2c1ncn2C(COCCP(=O)(O)O)COCCP(=O)(O)O | 21 |  |  |  |  | Ki [10]: 0.7 µM
19 |  | CCOC(=O)[C@H](Cc1ccccc1)NP(=O)(CCOCC(COCCP(=O)(N[C@@H](Cc1ccccc1)C(=O)OCC)N[C@@H](Cc1ccccc1)C(=O)OCC)n1cnc2c(=O)[nH]cnc21)N[C@@H](Cc1ccccc1)C(=O)OCC |  | Stable | 1.5 | > 300 | 1.7 | 
20 | 1.5 | O=c1[nH]cnc2c1ncn2CC(COCCP(=O)(O)O)COCCP(=O)(O)O | 6 |  |  |  |  | inhibition (Plasmodium falciparum [16]): inactive
21 |  | CCOC(=O)[C@H](Cc1ccccc1)NP(=O)(CCOCC(COCCP(=O)(N[C@@H](Cc1ccccc1)C(=O)OCC)N[C@@H](Cc1ccccc1)C(=O)OCC)Cn1cnc2c(=O)[nH]cnc21)N[C@@H](Cc1ccccc1)C(=O)OCC |  | Stable | 1.7 | 66 | 4.6 | 
22 |  | CCOC(=O)[C@H](Cc1ccccc1)NP(=O)(CCOCC(COCCP(=O)(N[C@@H](Cc1ccccc1)C(=O)OCC)N[C@@H](Cc1ccccc1)C(=O)OCC)n1ccc2c(=O)[nH]cnc21)N[C@@H](Cc1ccccc1)C(=O)OCC |  | Stable |  | 130 |  | 
23 | 5 | Nc1nc2c(ccn2C(COCCP(=O)(O)O)COCCP(=O)(O)O)c(=O)[nH]1 | 49 |  |  |  |  | Ki [10]: 6 µM
24 |  | O=c1[nH]cnc2c1nc(Br)n2C(COCCP(=O)(O)O)COCCP(=O)(O)O |  |  |  |  |  | inhibition (Plasmodium vivax [17]): inactive; inhibition (Plasmodium falciparum [18]): inactive; inhibition [19]: inactive

Row | SMILES | Ki [4] [µM] | Ki [5] [µM] | Stability [6] | IC50 (Plasmodium falciparum [7]) [µM] | CC50 at 96 h [8] [µM] | IC50 (Plasmodium falciparum [9]) [µM] | further results
25 | Nc1nc2c(ncn2C(COCCP(=O)(O)O)COCCP(=O)(O)O)c(=O)[nH]1 | 0.3 | 21 |  |  |  |  | Ki [10]: 0.2 µM
